ChEMBL document CHEMBL1201862, “PubChem BioAssay data set” (2004)
The source made the active and inactive calls.

Experiments:
HEK293 = experiment: Fluorescence-based counterscreen for potentiators or agonists of NPY-Y2: cell-based high-throughput dose response assay to identify inhibitors of cyclic nucleotide gated ion channel (CNGC) activity. In this assay, the parental HEK293 cell line transfected with a cyclic-nucleotide gated ion channel (CNGC)-based cAMP sensor is used to measure inhibition of isoproterenol-induced CNGC activity by test compound.; assay type: functional; conditions: Homo sapiens;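 further: stimulus is 1 µM isoproterenol at EC100 plus PDE inhibitor Ro 20-1724 at 25 µM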
[1] = target: Neuropeptide Y receptor type 2 (Homo sapiens, UniProt P49146); experiment: Fluorescence-based cell-based high-throughput dose response assay for agonists of NPY-Y2. [Related pubchem assays: 1703 (Screening assay (CNGC inhibitors).), 1359 (Screening assay (NPY-Y2 potentiators or agonists).), 1304 (Screening assay (NPY-Y1 potentiators or agonists).), 1710 (Screening assay (NPY-Y2 agonists).), 1791 (Summary AID.)]; assay type: functional
Chain of Neuropeptide Y receptor type 2 (P49146 whole entry): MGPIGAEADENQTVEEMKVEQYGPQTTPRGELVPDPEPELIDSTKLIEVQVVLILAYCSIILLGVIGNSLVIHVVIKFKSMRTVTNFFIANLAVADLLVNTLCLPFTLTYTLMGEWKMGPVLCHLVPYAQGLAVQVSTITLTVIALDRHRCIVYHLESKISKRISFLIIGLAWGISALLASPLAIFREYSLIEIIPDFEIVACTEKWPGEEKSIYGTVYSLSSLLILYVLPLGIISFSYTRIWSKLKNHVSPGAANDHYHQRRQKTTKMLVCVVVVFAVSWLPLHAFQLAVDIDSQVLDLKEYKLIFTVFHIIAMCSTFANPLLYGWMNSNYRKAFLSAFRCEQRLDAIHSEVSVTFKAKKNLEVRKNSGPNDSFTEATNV

[2] = microbe, parasite or virus in culture; assay type: functional; conditions: Mycobacterium tuberculosis
[3] = target: Neuropeptide Y receptor type 1 (Homo sapiens, UniProt P25929); experiment: Fluorescence-based counterscreen for agonists of NPY-Y2: cell-based high-throughput dose response assay for agonists of NPY-Y1.; assay type: functional
Chain of Neuropeptide Y receptor type 1 (P25929 whole entry): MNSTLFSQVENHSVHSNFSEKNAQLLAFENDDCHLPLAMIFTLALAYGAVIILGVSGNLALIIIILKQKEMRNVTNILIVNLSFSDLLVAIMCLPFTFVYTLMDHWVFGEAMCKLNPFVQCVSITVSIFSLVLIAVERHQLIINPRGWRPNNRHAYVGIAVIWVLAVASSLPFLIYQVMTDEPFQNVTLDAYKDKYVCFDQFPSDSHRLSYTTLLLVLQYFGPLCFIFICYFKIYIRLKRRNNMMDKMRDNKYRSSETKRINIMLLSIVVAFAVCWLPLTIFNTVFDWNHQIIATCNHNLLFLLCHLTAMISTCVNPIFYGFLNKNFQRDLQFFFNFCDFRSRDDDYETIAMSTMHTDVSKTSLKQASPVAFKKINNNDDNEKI

NS3 = NS3 (Hepatitis C virus, UniProt A3EZJ3); experiment: PubChem AID 2173; set-up: species or system Hepacivirus hominis
Chain of NS3 (A3EZJ3 whole entry): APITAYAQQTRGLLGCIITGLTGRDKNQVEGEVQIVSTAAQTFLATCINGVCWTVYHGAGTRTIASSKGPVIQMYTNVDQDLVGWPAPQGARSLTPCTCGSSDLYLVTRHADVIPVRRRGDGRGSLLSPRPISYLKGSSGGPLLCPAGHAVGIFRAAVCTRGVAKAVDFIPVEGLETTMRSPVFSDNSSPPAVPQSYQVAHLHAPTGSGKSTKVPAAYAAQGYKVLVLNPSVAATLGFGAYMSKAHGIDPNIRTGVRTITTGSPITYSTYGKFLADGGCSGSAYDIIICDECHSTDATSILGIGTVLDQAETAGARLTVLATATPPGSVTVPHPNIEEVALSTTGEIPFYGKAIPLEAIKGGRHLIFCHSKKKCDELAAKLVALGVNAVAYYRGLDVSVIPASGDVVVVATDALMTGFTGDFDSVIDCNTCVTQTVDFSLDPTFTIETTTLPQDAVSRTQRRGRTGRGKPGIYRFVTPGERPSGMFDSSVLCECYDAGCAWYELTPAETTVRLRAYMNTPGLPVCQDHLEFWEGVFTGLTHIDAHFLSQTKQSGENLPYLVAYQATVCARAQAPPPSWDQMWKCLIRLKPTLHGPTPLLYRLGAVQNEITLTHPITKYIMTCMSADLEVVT

[4] = target: Induced myeloid leukemia cell differentiation protein Mcl-1 (Homo sapiens, UniProt Q07820); assay type: functional
Chain of Induced myeloid leukemia cell differentiation protein Mcl-1 (Q07820 whole entry): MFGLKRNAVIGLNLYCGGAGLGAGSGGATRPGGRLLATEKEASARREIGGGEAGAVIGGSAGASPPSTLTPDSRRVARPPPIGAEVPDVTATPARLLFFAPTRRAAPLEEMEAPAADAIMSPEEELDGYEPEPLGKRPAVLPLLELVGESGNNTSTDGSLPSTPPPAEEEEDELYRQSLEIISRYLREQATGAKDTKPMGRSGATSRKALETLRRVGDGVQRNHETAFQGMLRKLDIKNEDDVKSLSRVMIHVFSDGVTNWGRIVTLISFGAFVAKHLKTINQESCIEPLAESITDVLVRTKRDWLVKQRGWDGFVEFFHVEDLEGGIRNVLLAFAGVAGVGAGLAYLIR

[5] = target: T1, Heat shock factor protein 1 (Mus musculus, UniProt P38532); experiment: HSF1 potentiators in luciferase reporter cells, confirmation, cell-based, NIH3T3, luminescence, dose retest (AID 435004); assay type: functional;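 further: stress induced by proteasome inhibitor MG132 added 30 min after compound; luciferase reporter driven by HSF1 response element in NIH3T3 cells; actives raise luminescence as potentiators of the MG132 stress response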
T1 sequence (P38532 whole entry): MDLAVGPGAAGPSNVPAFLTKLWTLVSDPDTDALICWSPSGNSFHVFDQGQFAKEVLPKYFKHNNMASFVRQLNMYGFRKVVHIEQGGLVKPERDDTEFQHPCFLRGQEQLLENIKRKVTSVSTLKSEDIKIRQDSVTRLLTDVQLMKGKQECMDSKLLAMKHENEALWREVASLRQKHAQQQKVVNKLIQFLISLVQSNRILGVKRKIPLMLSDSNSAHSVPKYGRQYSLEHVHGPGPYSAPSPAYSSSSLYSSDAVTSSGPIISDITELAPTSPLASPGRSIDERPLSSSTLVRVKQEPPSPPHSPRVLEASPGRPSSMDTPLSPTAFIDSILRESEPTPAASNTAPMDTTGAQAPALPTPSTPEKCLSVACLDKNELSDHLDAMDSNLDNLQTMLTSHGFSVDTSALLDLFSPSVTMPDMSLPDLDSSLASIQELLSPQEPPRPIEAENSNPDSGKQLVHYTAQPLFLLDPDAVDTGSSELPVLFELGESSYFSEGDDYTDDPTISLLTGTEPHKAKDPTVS

[6] = target: Mothers against decapentaplegic homolog 3 (Homo sapiens, UniProt P84022); experiment: Smad3 binding inhibitors, lysate ELISA, dose response, cell lysate, secondary confirmation, chemiluminescent ELISA, HEK293 lysate (AID 1058); assay type: functional
Chain of Mothers against decapentaplegic homolog 3 (P84022 whole entry): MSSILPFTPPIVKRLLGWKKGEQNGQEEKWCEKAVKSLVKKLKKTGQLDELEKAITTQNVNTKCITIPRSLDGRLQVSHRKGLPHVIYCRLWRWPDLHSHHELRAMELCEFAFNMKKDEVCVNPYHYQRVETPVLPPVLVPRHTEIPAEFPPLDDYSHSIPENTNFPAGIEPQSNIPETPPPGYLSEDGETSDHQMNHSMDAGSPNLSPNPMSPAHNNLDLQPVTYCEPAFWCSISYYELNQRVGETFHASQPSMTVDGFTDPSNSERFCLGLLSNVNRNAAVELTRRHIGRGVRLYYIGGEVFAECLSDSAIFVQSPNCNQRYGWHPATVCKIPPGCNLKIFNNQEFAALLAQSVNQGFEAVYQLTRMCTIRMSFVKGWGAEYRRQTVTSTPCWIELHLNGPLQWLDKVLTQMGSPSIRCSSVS

Q: Which results are given for `CCN(CC)S(=O)(=O)c1ccc2ncc(C(=O)NCCC3=CCCCC3)c(O)c2c1`?
A: EC50 (HEK293): 10.1 µM (not active); EC50 [1]: 13.8 µM (not active); CC50 [2]: > 40 µM (active); EC50 [3]: 13.3 µM (not active)

Q: Which results are given for `COc1ccc(NC2=NC(=O)/C(=C\C=C\c3ccco3)S2)cc1`?
A: IC50 (NS3): 25.9 µM (not active); IC50 [4]: 3.02 µM (active); EC50 [5]: > 260 µM (inactive)

Q: Which IC50 [6] does the source give for `O=C(O)c1cc2cc(O)ccc2[nH]1` here?
A: Its IC50 is 1.77 µM (not active).
